Molecules are shown by their SMILES.

This data set can be described thus: Evaluation of solution appearance. The class given is physicochemical. The following applies: solution adjusted to the five-kind MIC, 4 mL tube, allowed to stand still, visually observed. The protocol: […] of each of the test microbial liquids was dispensed onto a microplate, and further, […] of each of antibacterial and antifungal solutions, in which the antibacterial and antifungal compositions prepared in Examples 1 and 2 and Comparative Examples 1 to 11 were adjusted to various concentrations with a culture medium, was added to the test microbial liquid, followed by stirring, to obtain a mixed solution. In this case, the pH of each of the antibacterial and antifungal solutions was from 6.89 to 7.24. Next, in each of the mixed solutions, culture was performed as follows. The bacterium mixed solution was cultured in a constant-temperature reservoir at 37° C. for 24 hours. The yeast mixed solution was cultured in the constant-temperature reservoir at 25° C. for 3 days. The mold mixed solution was cultured in the constant-temperature reservoir at 25° C. for 1 week. […] In addition, the appearance of the antibacterial and antifungal solution was evaluated as follows. […] The appearance of the solution was visually observed and evaluated in accordance with the following criteria. […]

`OCc1ccccc1` [Comparative Example 6, benzyl alcohol]: the “Evaluation of solution appearance” value was “◯”.

As to `O=C([O-])c1ccccc1.[Na+]` [compound 7, sodium benzoate], the “Evaluation of solution appearance” value is “◯”.

These data come from US11395486B2, “Antibacterial and antifungal composition” (ADEKA CORPORATION, priority 2017, dated 2022).
